pIC50: −log10 of the molar value. Where two headings read alike, the source gives them in different places.
Molecular target: recombinant eIF4E (Homo sapiens (Human), UniProt P06730)
Test: Fluorescence polarization competition assay for eIF4E binding potency
Summary of the method: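 Competition of test compound against 20 nM EDA-m^7GDP-ATTO-550 for 75 nM recombinant eIF4E, pre-incubated 5 min, in 20 mM Tris pH 7.5, 100 mM NaCl, 1 mM DTT, 0.02% Tween-20, 1% DMSO. Equilibrated 30 min at room temperature, dark; fluorescence polarization read. IC50 from 8-point, 3-fold dilution series.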

[1] = fluorescence polarization competition, 75 nM recombinant eIF4E, 20 nM EDA-m7GDP-ATTO-550, IC50 class, read-out: elF4E FP
[2] = inhibition of eIF4E/EDA-m7GDP-ATTO-550 binding by 50%, Table 4B calculated values, read-out: IC50

recombinant eIF4E, sequence (P06730 whole entry): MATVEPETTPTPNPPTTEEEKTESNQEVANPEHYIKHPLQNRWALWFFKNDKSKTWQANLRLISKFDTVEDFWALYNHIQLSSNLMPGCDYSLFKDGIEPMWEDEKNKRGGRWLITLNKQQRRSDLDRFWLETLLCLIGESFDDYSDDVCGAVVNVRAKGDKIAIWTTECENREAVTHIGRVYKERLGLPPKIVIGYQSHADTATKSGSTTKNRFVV

Row | Structure (SMILES) | pIC50 [1] | pIC50 [2]
1 | COC(=O)c1csc2c(-c3cc(Cl)ccc3C#CCn3c(C)nc4cnc(N5CCN(CCOC(F)(F)F)CC5)c(C#N)c4c3=O)ccnc12 [compound 1104] | 6.00 to 7.30 | 6.20
2 | Cc1nc2cnc(N(C)C3CCN(CC(C)(F)F)CC3)c(C#N)c2c(=O)n1CC#Cc1ccc(Cl)cc1-c1ccnc2c(C(=O)NS(=O)(=O)CC(F)F)csc12 [compound 1105] | > 7.30 | 7.66
3 | Cc1nc2cnc(N(C)C34CCC(N(C)CCF)(CC3)C4)c(C#N)c2c(=O)n1CC#Cc1ccc(Cl)cc1-c1ccnc2c(C(=O)O)csc12 [compound 1106] | > 7.30 | 7.76
4 | Cc1nc2cnc(N(C)C3CCN(CC(F)(F)C(C)(F)F)CC3)c(C#N)c2c(=O)n1CC#Cc1ccc(Cl)cc1-c1ccnc2c(C(=O)O)csc12 [compound 1107] | > 7.30 | 7.98
5 | Cc1nc2cnc(N(C)C3CCN(C4CC(F)(F)C4)CC3)c(C#N)c2c(=O)n1CC#Cc1ccc(Cl)cc1-c1ccnc2c(C(=O)NS(C)(=O)=O)csc12 [compound 1108] | > 7.30 | 7.54
6 | Cc1nc2cnc(N(C)C3CCN(C4CC(F)(F)C4)CC3)c(C#N)c2c(=O)n1CC#Cc1ccc(Cl)cc1-c1ccnc2c(C(=O)NS(=O)(=O)c3ccccn3)csc12 [compound 1109] | > 7.30 | 7.87
7 | Cc1nc2cnc(N(C)C3CCN(C4CC(F)(F)C4)CC3)c(C#N)c2c(=O)n1CC#Cc1ccc(Cl)cc1-c1ccnc2c(C(=O)NS(=O)(=O)c3cccnc3)csc12 [compound 1110] | > 7.30 | 8.14
8 | Cc1nc2cnc(N(C)C3CCN(C4CC(F)(F)C4)CC3)c(C#N)c2c(=O)n1CC#Cc1ccc(Cl)cc1-c1ccnc2c(C(=O)NS(=O)(=O)c3ccncc3)csc12 [compound 1111] | > 7.30 | 8.24
9 | Cc1nc2cnc(N(C)C3CCN(CC(F)F)CC3)c(C#N)c2c(=O)n1CC#Cc1ccc(Cl)cc1-c1ccnc2c(C(=O)O)csc12 [compound 1112] | > 7.30 | 7.70
10 | COC(=O)c1csc2c(-c3cc(Cl)ccc3C#CCn3c(C)nc4cnc(N(C)C5CCN(CC(F)F)CC5)c(C#N)c4c3=O)ccnc12 [compound 1113] | 6.00 to 7.30 | 6.85
11 | Cc1nc2c(C3CCN(CC(F)(F)F)CC3)ncc(C#N)c2c(=O)n1CCOc1ccc(Cl)cc1-c1ccnc2c(C(=O)O)csc12 [compound 1115] | > 7.30 | 8.17
12 | Cc1nc2cnc(C3CCN(CC(F)(F)F)CC3)c(C#N)c2c(=O)n1CC#Cc1ccc(Cl)cc1-c1ccnc2c(C(=O)O)csc12 [compound 1116] | > 7.30 | 7.77
13 | Cc1nc2cnc(C3CCN(CC(F)(F)F)CC3)c(C#N)c2c(=O)n1CCOc1ccc(Cl)cc1-c1ccnc2c(C(=O)O)csc12 [compound 1117] | > 7.30 | 7.87
14 | Cc1nc2cnc(N(C)C3CCN(C4(C)COC4)CC3)c(C#N)c2c(=O)n1CC#Cc1ccc(Cl)cc1-c1ccnc2c(C(=O)O)csc12 [compound 1118] | > 7.30 | 7.85
15 | Cc1nc2cnc(N(C)C3CCN(CC(F)(F)C(F)(F)F)CC3)c(C#N)c2c(=O)n1CC#Cc1ccc(Cl)cc1-c1ccnc2c(C(=O)O)csc12 [compound 1119] | > 7.30 | 7.84
16 | Cc1nc2cnc(N(C)C3CCCCC3)c(C#N)c2c(=O)n1CC#Cc1ccc(Cl)cc1-c1ccnc2c(C(=O)O)csc12 [compound 1120] | > 7.30 | 8.02
17 | Cc1nc2cnc(/C=C/CN3CCC(F)(F)CC3)c(C#N)c2c(=O)n1CCOc1ccc(Cl)cc1-c1ccnc2c(C(=O)O)csc12 [compound 1121] | > 7.30 | 8.03
18 | Cc1nc2cnc(/C=C/CN3CC(F)C3)c(C#N)c2c(=O)n1CCOc1ccc(Cl)cc1-c1ccnc2c(C(=O)O)csc12 [compound 1122] | > 7.30 | 7.84
19 | Cc1nc2cnc(/C=C/C3(N(C)C)CC3)c(C#N)c2c(=O)n1CCOc1ccc(Cl)cc1-c1ccnc2c(C(=O)O)csc12 [compound 1123] | > 7.30 | 7.67
20 | Cc1nc2cnc(N(C)C3CCN(CC(F)(F)C4CC4)CC3)c(C#N)c2c(=O)n1CC#Cc1ccc(Cl)cc1-c1ccnc2c(C(=O)O)csc12 [compound 1125] | > 7.30 | 7.84
21 | Cc1nc2cnc(N(C)C3CCN(CC(F)(F)C4CC4)CC3)c(C#N)c2c(=O)n1CCOc1ccc(Cl)cc1-c1ccnc2c(C(=O)O)csc12 [compound 1126] | > 7.30 | 7.58
22 | Cc1nc2cnc(N(C)C3CCN(CC(=O)C(C)C)CC3)c(C#N)c2c(=O)n1CCOc1ccc(Cl)cc1-c1ccnc2c(C(=O)O)csc12 [compound 1127] | > 7.30 | 7.89
23 | Cc1nc2cnc(N(C)C3CCN(CC(=O)C4CC4)CC3)c(C#N)c2c(=O)n1CCOc1ccc(Cl)cc1-c1ccnc2c(C(=O)O)csc12 [compound 1128] | > 7.30 | 7.62
24 | Cc1nc2cnc(N(C)C3CCN(C4(C(F)(F)CO)CC4)CC3)c(C#N)c2c(=O)n1CC#Cc1ccc(Cl)cc1-c1ccnc2c(C(=O)O)csc12 [compound 1131] | > 7.30 | 7.83

Row | Structure (SMILES) | pIC50 [1] | pIC50 [2]
25 | Cc1nc2cnc(N(C)C3CCN(CC(F)(F)CO)CC3)c(C#N)c2c(=O)n1CC#Cc1ccc(Cl)cc1-c1ccnc2c(C(=O)O)csc12 [compound 1132] | > 7.30 | 7.88
26 | COCC(F)(F)CN1CCC(N(C)c2ncc3nc(C)n(CC#Cc4ccc(Cl)cc4-c4ccnc5c(C(=O)O)csc45)c(=O)c3c2C#N)CC1 [compound 1133] | > 7.30 | 7.77
27 | Cc1nc2cnc(N(C)C3CCN(CC(F)(F)CF)CC3)c(C#N)c2c(=O)n1CC#Cc1ccc(Cl)cc1-c1ccnc2c(C(=O)O)csc12 [compound 1134] | > 7.30 | 7.82
28 | Cc1nc2cnc(N(C)C3CCN([C@H]4C[C@H](OC(F)F)C4)CC3)c(C#N)c2c(=O)n1CC#Cc1ccc(Cl)cc1-c1ccnc2c(C(=O)O)csc12 [compound 1135] | > 7.30 | 7.46
29 | Cc1nc2cnc(N3CCC4(CC3)CN(CC(F)F)C4)c(C#N)c2c(=O)n1CC#Cc1ccc(Cl)cc1-c1ccnc2c(C(=O)O)csc12 [compound 1136] | > 7.30 | 7.77
30 | Cc1nc2cnc(N3CCC4(CC3)CN(CC(C)(F)F)C4)c(C#N)c2c(=O)n1CC#Cc1ccc(Cl)cc1-c1ccnc2c(C(=O)O)csc12 [compound 1137] | > 7.30 | 7.76
31 | Cc1cc(-c2cc(Cl)ccc2OCCn2c(C)nc3ccc(CCN(C)C)c(C#N)c3c2=O)c2scc(C(=O)NS(C)(=O)=O)c2n1 [compound 1138] | > 7.30 | 7.63
32 | Cc1nc2cnc(N(C)C3CCN(CC(F)(F)F)CC3)c(C#N)c2c(=O)n1CC#Cc1ccc(Cl)cc1-c1ccnc2c(C(=O)O)csc12 [compound 1140] | > 7.30 | 8.21
33 | Cc1nc2cnc(N(C)C3CCN(CC(C)(C)F)CC3)c(C#N)c2c(=O)n1CC#Cc1ccc(Cl)cc1-c1ccnc2c(C(=O)O)csc12 [compound 1142] | > 7.30 | 7.89
34 | Cc1nc2cnc(N(C)C3CCN(CC(C)(F)F)CC3)c(C#N)c2c(=O)n1CC#Cc1ccc(Cl)cc1-c1ccnc2c(C(=O)NS(=O)(=O)c3ccncc3)csc12 [compound 1143] | > 7.30 | 7.61
35 | Cc1nc2cnc(N(C)C3CCN(CC(C)(F)F)CC3)c(C#N)c2c(=O)n1CC#Cc1ccc(Cl)cc1-c1ccnc2c(C(=O)NS(=O)(=O)c3cccnc3)csc12 [compound 1144] | > 7.30 | 7.46
36 | Cc1cc(-c2cc(Cl)ccc2OCCn2c(C)nc3cnc(N4CCN(C)CC4)c(C#N)c3c2=O)c2scc(C(=O)O)c2n1 [compound 1145] | > 7.30 | 7.48
37 | Cc1nc2cnc(N(C)C3CCN(CC(C)(F)F)CC3)c(C#N)c2c(=O)n1CC#Cc1ccc(Cl)cc1-c1ccnc2c(C(=O)NS(=O)(=O)c3ccccn3)csc12 [compound 1146] | > 7.30 | 7.84
38 | Cc1nc2cccc(C#N)c2c(=O)n1CCOc1ccc(Cl)cc1-c1cccc(C(=O)O)c1 [compound 1147] | > 7.30 | 7.35
39 | Cc1nc(-c2ccccc2C(F)(F)F)c(C#N)c2c(=O)n(CCOc3ccc(Cl)cc3-c3ccnc4c(C(=O)O)csc34)c(C)nc12 [compound 1148] | > 7.30 | 7.45
40 | Cc1cc(-c2cc(Cl)ccc2OCCn2c(C)nc3c(C)nc(N4CCC(O)C4)c(C#N)c3c2=O)c2scc(C(=O)O)c2n1 (stereo not shown) [compound 1149] | > 7.30 | 8.38
41 | Cc1cc(-c2cc(Cl)ccc2OCCn2c(C)nc3cc(S(C)(=O)=O)c(N4CCN(C)CC4)c(C#N)c3c2=O)c2sc(C)c(C(=O)O)c2n1 [compound 1150] | > 7.30 | 8.34
42 | Cc1nc2cc(C(F)(F)F)c(N3CCN(C)CC3)c(C#N)c2c(=O)n1CCOc1ccc(Cl)cc1-c1ccnc2c(C(=O)NS(C)(=O)=O)csc12 [compound 1151] | > 7.30 | 7.72
43 | CO[C@H]1C[C@@H](c2ncc3nc(C)n(CCOc4ccc(Cl)cc4-c4cc(C)nc5c(C(=O)O)csc45)c(=O)c3c2C#N)C1 [compound 1152] | > 7.30 | 8.42
44 | Cc1nc2cc(C(F)(F)F)c(OCC(F)(F)F)c(C#N)c2c(=O)n1CCOc1ccc(Cl)cc1-c1ccnc2c(C(=O)O)csc12 [compound 1153] | > 7.30 | 7.42
45 | Cc1nc2cc(C(F)(F)F)c(N3CCN(C)CC3)c(C#N)c2c(=O)n1CC#Cc1ccc(Cl)cc1-c1cccc(C(=O)O)c1 [compound 1154] | > 7.30 | 7.85
46 | Cc1nc2cc(C(F)(F)F)c(N3CCN(C)CC3)nc2c(=O)n1CCOc1ccc(Cl)cc1-c1ccnc2c(C(=O)NS(C)(=O)=O)csc12 [compound 1155] | > 7.30 | 7.74
47 | Cc1nc2cc(C(F)(F)F)c(N3CCN(CCC(F)(F)F)CC3)c(C#N)c2c(=O)n1CCCc1ccc(Cl)cc1-c1ccnc2c(C(=O)O)csc12 [compound 1156] | > 7.30 | 7.45

— patent publication US11286268B1, “EIF4E-inhibiting compounds and methods” (EFFECTOR THERAPEUTICS, INC., priority 2019, dated 2022)
